Results: US9695155B2, “Herbicidal substituted pyrimidinyloxy benzene compounds” (E. I. DU PONT DE NEMOURS AND COMPANY, priority 2013, dated 2017)

Key:
barnyardgrass [1] = assay: Test A preemergence; type: in vivo, Echinochloa crus-galli; conditions: Echinochloa crus-galli, pre-emergence, 240 h, 0 to 100 scale where 0 is no effect and 100 is complete control
Method in brief: (§1)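 Scoring: eye-based comparison with untreated controls, 0 for no effect through 100 for complete control, at about day 10. Treatments: directed soil spray preemergence; foliar spray postemergence on 2–10 cm plants at the one- to two-leaf stage. Medium: loam soil with sand.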

wheat = assay: Test A postemergence; type: in vivo, Triticum aestivum; conditions: Triticum aestivum, post-emergence, 240 h, 0 to 100 scale where 0 is no effect and 100 is complete control
Method in brief: as §1

Heteranthera limosa = assay: Test B flooded paddy test; type: in vivo; conditions: Heteranthera limosa, Flood, 250 g ai/ha; 0 to 100 scale where 0 is no effect and 100 is complete control; read-out: Plant response rating, Ducksalad
Method in brief: (§2)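 Plants at 2-leaf stage; pots flooded to 3 cm above soil and compound applied directly into paddy water, depth held throughout. After 13 to 15 days in greenhouse, visual rating versus controls on 0 (no effect) to 100 (complete control) scale.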

barnyardgrass [2] = assay: Test B flooded paddy test; type: in vivo, Echinochloa crus-galli; conditions: Echinochloa crus-galli; Flood, 250 g ai/ha; 0 to 100 scale where 0 is no effect and 100 is complete control; read-out: Plant response rating, Barnyardgrass
Method in brief: as §2

blackgrass [3] = assay: Test C preemergence; type: in vivo, Alopecurus myosuroides; conditions: Alopecurus myosuroides, pre-emergence
Method in brief: (§3)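 Seeds were sown in loam–sand blend and sprayed preemergence, while plants at 1- to 4-leaf stage (2–18 cm) in peat-based medium received postemergence sprays; test chemicals were formulated in a non-phytotoxic solvent with surfactant. After 13–15 days in a greenhouse, injury was rated visually against controls, 0 (no effect) to 100 (complete control).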

Italian ryegrass = assay: Test C preemergence; type: in vivo, Lolium multiflorum; conditions: Lolium multiflorum, pre-emergence
Method in brief: as §3

wheat, winter = assay: Test C preemergence; type: in vivo, Triticum aestivum; conditions: Triticum aestivum, pre-emergence
Method in brief: as §3

large (Lg) crabgrass = assay: Test C preemergence; type: in vivo, Digitaria sanguinalis; conditions: Digitaria sanguinalis, pre-emergence
Method in brief: as §3

blackgrass [4] = assay: Test C postemergence; type: in vivo, Alopecurus myosuroides; conditions: Alopecurus myosuroides, post-emergence
Method in brief: as §3

johnsongrass = assay: Test C postemergence; type: in vivo, Sorghum halepense; conditions: Sorghum halepense, post-emergence
Method in brief: as §3

wild oat = assay: Test C postemergence; type: in vivo, Avena fatua; conditions: Avena fatua, post-emergence
Method in brief: as §3

FC(F)(F)Sc1cnn(-c2ccccc2Oc2ncc(Cl)cn2)c1 [Compound 132, 5-chloro-2-[2-[4-(trifluoromethylthio)-1H-pyrazol-1-yl]phenoxy]pyrimidine]
pest or weed control at 125 g/ha (barnyardgrass [1]; 125 g ai/ha, read-out: Plant response rating, Barnyardgrass): 50% | pest or weed control at 500 g/ha (barnyardgrass [1]; 500 g ai/ha, read-out: Barnyardgrass plant response rating): 100% | plant injury at 125 g/ha (wheat; 125 g ai/ha, read-out: Wheat plant response rating): 0% | plant injury at 500 g/ha (wheat; 500 g ai/ha, read-out: Plant response rating, Wheat): 60% | pest or weed control at 250 g/ha (Heteranthera limosa): 0% | pest or weed control at 250 g/ha (barnyardgrass [2]): 0% | pest or weed control at 16 g/ha (blackgrass [3]; 16 g ai/ha, preemergence, scale 0 to 100 (0 no effect, 100 complete control), read-out: Blackgrass plant response rating): 0% | pest or weed control at 62 g/ha (blackgrass [3]; 62 g ai/ha, preemergence, scale 0 (no effect) to 100 (complete control), read-out: Blackgrass plant response rating): 40% | pest or weed control at 125 g/ha (blackgrass [3]; 125 g ai/ha, preemergence, scale 0 (no effect) to 100 (complete control), read-out: Blackgrass plant response rating): 95% | pest or weed control at 31 g/ha (blackgrass [3]; Preemergence, 31 g ai/ha, scale 0 to 100, 0 no effect, 100 complete control, read-out: Plant response rating, Blackgrass): 5% | pest or weed control at 16 g/ha (Italian ryegrass; 16 g ai/ha, preemergence, scale 0 to 100 (0 no effect, 100 complete control), read-out: Ryegrass, Italian plant response rating): 0% | pest or weed control at 62 g/ha (Italian ryegrass; 62 g ai/ha, preemergence, scale 0 (no effect) to 100 (complete control), read-out: Ryegrass, Italian plant response rating): 5% | pest or weed control at 125 g/ha (Italian ryegrass; 125 g ai/ha, preemergence, scale 0 (no effect) to 100 (complete control), read-out: Ryegrass, Italian plant response rating): 30% | pest or weed control at 31 g/ha (Italian ryegrass; Preemergence, 31 g ai/ha, scale 0 to 100, 0 no effect, 100 complete control, read-out: Plant response rating, Ryegrass, Italian): 0% | plant injury at 16 g/ha (wheat, winter; 16 g ai/ha, preemergence, scale 0 to 100 (0 no effect, 100 complete control), read-out: Wheat plant response rating): 0% | plant injury at 62 g/ha (wheat, winter; 62 g ai/ha, preemergence, scale 0 (no effect) to 100 (complete control), read-out: Wheat plant response rating): 0% | plant injury at 125 g/ha (wheat, winter; 125 g ai/ha, preemergence, scale 0 (no effect) to 100 (complete control), read-out: Wheat plant response rating): 0% | plant injury at 31 g/ha (wheat, winter; Preemergence, 31 g ai/ha, scale 0 to 100, 0 no effect, 100 complete control, read-out: Plant response rating, Wheat): 0% | pest or weed control at 16 g/ha (large (Lg) crabgrass; 16 g ai/ha, preemergence, scale 0 to 100 (0 no effect, 100 complete control), read-out: Crabgrass, Large plant response rating): 65% | pest or weed control at 62 g/ha (large (Lg) crabgrass; 62 g ai/ha, preemergence, scale 0 (no effect) to 100 (complete control), read-out: Crabgrass, Large plant response rating): 98% | pest or weed control at 125 g/ha (large (Lg) crabgrass; 125 g ai/ha, preemergence, scale 0 (no effect) to 100 (complete control), read-out: Crabgrass, Large plant response rating): 100% | pest or weed control at 31 g/ha (large (Lg) crabgrass; Preemergence, 31 g ai/ha, scale 0 to 100, 0 no effect, 100 complete control, read-out: Plant response rating, Crabgrass, Large): 85% | pest or weed control at 16 g/ha (blackgrass [4]; 16 g ai/ha, postemergence, 0 is no effect, 100 is complete control, read-out: Plant response rating (0 to 100), Blackgrass): 5% | pest or weed control at 125 g/ha (blackgrass [4]; 125 g ai/ha, postemergence, visual rating, scale 0 to 100 (0 no effect, 100 complete control), read-out: Plant response rating, Blackgrass): 5% | pest or weed control at 31 g/ha (blackgrass [4]; Postemergence, 31 g ai/ha, scale 0 to 100 (0 no effect, 100 complete control), 13 to 15 days, read-out: Plant response rating, Blackgrass): 5% | pest or weed control at 62 g/ha (blackgrass [4]; Postemergence, 62 g ai/ha, scale 0 to 100 (0 no effect, 100 complete control), read-out: Plant response rating, Blackgrass): 10% | pest or weed control at 16 g/ha (johnsongrass; 16 g ai/ha, postemergence, 0 is no effect, 100 is complete control, read-out: Plant response rating (0 to 100), Johnsongrass): 5% | pest or weed control at 125 g/ha (johnsongrass; 125 g ai/ha, postemergence, visual rating, scale 0 to 100 (0 no effect, 100 complete control), read-out: Plant response rating, Johnsongrass): 5% | pest or weed control at 62 g/ha (johnsongrass; Postemergence, 62 g ai/ha, scale 0 to 100 (0 no effect, 100 complete control), read-out: Plant response rating, Johnsongrass): 5% | pest or weed control at 16 g/ha (wild oat; 16 g ai/ha, postemergence, 0 is no effect, 100 is complete control, read-out: Plant response rating (0 to 100), Oat, Wild): 0% | pest or weed control at 125 g/ha (wild oat; 125 g ai/ha, postemergence, visual rating, scale 0 to 100 (0 no effect, 100 complete control), read-out: Plant response rating, Oat, Wild): 5% | pest or weed control at 62 g/ha (wild oat; Postemergence, 62 g ai/ha, scale 0 to 100 (0 no effect, 100 complete control), read-out: Plant response rating, Oat, Wild): 5%
